In patent publication EP0564801A1, “Analysis of host cell shut-off” (BOEHRINGER INGELHEIM INTERNATIONAL GmbH, priority 1992, dated 1993):

Legend:
HRV2 2A = molecular target: T1, HRV2 2A (Human rhinovirus 2, UniProt P04936); test: Competition assay of peptide substrates against reference peptide P8-P8' (HPLC analysis of cleavage); type: biochemical; settings: for Spaltbarkeit durch HRV2 2A (result in words): competition assay with P8-P8'
T1 construct: wurden mit einer reifen, rekombinanten HRV2 2A durchgeführt; made in house
T1 sequence (P04936 851-992): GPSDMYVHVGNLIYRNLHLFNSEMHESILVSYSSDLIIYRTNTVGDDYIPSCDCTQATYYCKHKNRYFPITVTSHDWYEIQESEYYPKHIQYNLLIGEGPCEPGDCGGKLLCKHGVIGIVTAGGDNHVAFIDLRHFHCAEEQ
Excerpt: Die Substratspezifitätsstudien, wie auch alle anderen Studien in diesem Beispiel, wurden mit einer reifen, rekombinanten HRV2 2A durchgeführt. Mittels Kompetitionsstudien unter Verwendung eines 16-mer Wildtyp-Peptidsubstrats (P8-P8') als Referenzpeptid wurde der jeweilige (Vmax/Km)rel-Wert für das mutierte Peptidsubstrat ermittelt. Das Peptid P8-P8' ([…]* […] (SEQ ID NO. 23)) entspricht der nativen Spaltstelle von HRV2 2A im Polyprotein ([…] ist der C-terminale Teil von VP1 und […] der N-Terminus von HRV2 2A). Dieses Peptid wird von der rekombinanten HRV2 2A intermolekular korrekt zwischen Ala und Gly prozessiert (Km-Wert: (5,4±0,02) x 10⁻⁴ Mol/l; Sommergruber et al., loc cit). […] Die Kompetitionsreaktion wurde durch Zugabe von 1 µl einer reinen (ca. 95%) HRV2 2A Stammlösung (2mg/ml in Puffer A + 0,05% NaN₃) gestartet. 50 µl Proben wurden jeweils nach 30, 60, 90, 120 und 150 sek bzw. nach 2, 4, 8, 16 und 32 min entnommen, in ein ULTRAFREE-MC Röhrchen (10,000 NMWL; Fa. Millipore) mit jeweils 250 µl 0,5 M HClO₄ transferriert (Reaktionsstop), gemischt und auf Eis gestellt (mindestens 15 min). Anschließend wurde die Lösung 30 min bei 14K, 4°C in einer SIGMA Eppendorfzentrifuge zentrifugiert. Das Filtrat wurde direkt zur HPLC Analyse eingesetzt. Peptidsubstrate und deren Spaltprodukte wurden entweder auf einem Kurzgradienten (5,5 min; 5,4% B/min; Merck Supersphere C18 Säule, 4x50 mm) oder einem Langgradienten (34,5 min; 0,8% B/min; Bakerbond WP C18 Säule, 4,6x250mm) aufgetrennt. Die Messung der UV Absorption wurde bei 210 nm und 280 nm durchgeführt. Die Spaltprodukte wurden mittels Komigration von Referenzpepetiden und/oder durch Proteinsequenzierung (Hunkapiller und Hood (1983) Science 219, 650-659) identifiziert. Der prozentuelle Anteil der Spaltung für jeden Zeitpunkt wurde durch Vergleich der Flächen der C- und N-terminalen Produktpeaks mit dem des verbliebenen ungespaltenen Peptidsubstrats ermittelt. Zusätzlich wurden die Daten graphisch ausgewertet, um etwaige Abweichungen vom klassischen Kurvenverlauf zu erkennen (z.B. sigmoide Kurve, allosterische Effekte etc.). Bei keinem der in Abb. 23 angeführten mutierten Peptidsubstrate konnte solch ein Effekt beobachtet werden. Für jedes Substrat und dessen Spaltprodukte war die Gesamtfläche der Peaks unabhängig vom Maß der Spaltung (< 5%). Für zwei Peptidsubstrate 1 und 2 ergeben sich in einem Kompetitionsassay nach Pallai et al. (Pallai et al. (1989) J. Biol. Chem. 264, 9738-9741) die (Vmax/Km)rel-Werte: (Vmax/Km)1/(Vmax/Km)2 = log(1-F1)/log(1-F2) [formula] wobei F der Anteil des umgesetzten Substrats ist. In allen Kompetitionsstudien waren Substrat- und Produktpeaks entweder auf dem langen oder dem kurzen bzw. auf beiden Gradienten über HPLC-Analyse voneinander trennbar. […]

host cell shut-off = test: Inhibition of host cell shut-off (statement, test not described); settings: statement only, no data given
2A = 2A (Human rhinovirus 2, UniProt P04936); settings: Sommergruber et al. (1992); read-out: IC50 für 2A; cited from earlier work
Chain of 2A (P04936 851-992): as above

HRV2 2A Proteinase [1] = molecular target: T2, HRV2 2A Proteinase (Human rhinovirus 2, UniProt P04936); test: In vitro translation of globin RNA in HeLa cell extract pretreated with 2A proteinase, with inhibitor; type: biochemical; settings: 2A Proteinase preincubated with 0,5 mM Elastatinal, Fig. 16C, Spur 4
T2 construct: allen 142 Aminosäuren der 2A Proteinase von HRV2 und 2 Stoppcodons; N-terminal leader: first 14 aa of T7 gene 10 protein + last 7 aa of HRV2 VP1 (removed by self-cleavage) (N, cleaved yes); made in house; host or cells: E. coli BL21(DE3)LysS, plasmid pET/2A; 30 % ammonium sulfate precipitate
T2 sequence (P04936 851-992): as above
Experimental: Zur Herstellung eines HeLa-Zellextraktes wurde eine 1 l HeLa-Suspensionkultur (z.B. HeLa S3 (03-157, FLOWLABS) oder HeLa Ohio (03-147, FLOWLABS)), (ca. 4 x 10⁵ Zellen/ml) in halb-logarithmischer Phase abzentrifugiert (20 min, 1200 rpm), mit isotonischem Puffer gewaschen, durch mehrmaliges "Douncen" (40- bis 50-mal) aufgebrochen und die Zelltrümmer durch Zentrifugation (3 min, 3000 rpm) entfernt. Der Überstand wurde erneut zentrifugiert (20 min, 10000 rpm), das Pellet verworfen und der neue Überstand nochmals zentrifugiert (20 min, 13000 rpm). Der erhaltene Überstand wurde dann bei 4°C gegen Dialysepuffer (zweimal je 400 ml) dialysiert und nochmals 20 Minuten bei 13000 rpm zentrifugiert (20 min, 13000 rpm). Der Überstand (S 20-Extrakt) wurde portioniert und in flüssigem Stickstoff gelagert. isotonischer Puffer: 10 mM Hepes, pH 7,9, 140 mM KCl, 1,5 mM MgCl₂, 1 mM EDTA, 0,5 mM PMSF. Dialysepuffer: 0,1 M KCl, 20 % Glycerin, 20 mM Hepes, pH 7,9, 0,2 mM EDTA, 0,5 mM DTT, 0,5 mM PMSF.
1 ml Portionen des S 20-Extraktes wurden dann mit Micrococcal Nuclease (Boehringer Mannheim; Nr. 107921) behandelt, um die endogene RNA abzubauen: Zunächst wurde der Extrakt zentrifugiert (15 min, 4°C, 13000 rpm) und das Pellet verworfen. Zum Überstand (1 ml) wurden zugegeben: 1,2 µl 1 M CaCl₂ 1,5 µl 1 M MgOAc 16,0 µl Micrococcal Nuclease (15 U/µl). […]

HRV2 2A Proteinase [2] = molecular target: T2, HRV2 2A Proteinase; test: In vitro translation of capped pLink-2C RNA in rabbit reticulocyte lysate pretreated with 2A preparation, with inhibitor; type: biochemical; settings: 2A Präparation treated with 0,5 mM Elastatinal, Figur 8B, Spur 8
Experimental: In vitro Transkription dieser Plasmide nach Linearisierung mit BamHI mittels T7 RNA Polymerase wurde wie beschrieben (Duechler et al. (1989), loc. cit.) durchgeführt. Für die Synthese von RNA mit Cap-Struktur wird dem Transkriptionsansatz ⁷mGpppG und GTP zugesetzt. Zum Beispiel kann der von Duechler et al. (1989, loc. cit.) beschriebene Reaktionsansatz 1 mM 7MeGppG und 250 µm GTP enthalten. Am Ende der Reaktionszeit wurde die DNA durch Zugabe von DNase I (RNAse-frei, Boehringer Mannheim) verdaut, die Proteine durch Phenolextraktion entfernt, und die RNA nach Zugabe von einem Drittel Volumen 8 M Ammoniumacetat mit Ethanol gefällt. Nach nochmaliger Fällung mit Ethanol wurde die RNA anschließend in Wasser aufgenommen und ein Aliquot durch Agarosegelelektrophorese auf Qualität überprüft. Der Laufpuffer enthielt 1% SDS. Für die in vitro Translation wurde jeweils 1 µg dieser RNAs eingesetzt. Die Reaktion enthielt in 20 µl 90 mM KCl, 0.3 mM MgCl₂, 10 mM Kreatinphosphat, 2 µl ³⁵S-Trans-Label (ICN; 10 µCi/µl, 1000 Ci/mmol) und 11,5 µl Kaninchenreticulocytenlysat, das mit Micrococcal Nuclease (Sigma) behandelt worden war. Das Kaninchenreticulocytenlysat wurde nach der Methode von Jackson, R. und Hunt, T. (Meth. Enzymol. (1983) 96, 50 - 74) durch Behandlung mit Micrococcal Nuclease hergestellt. […]

Row | Compound | Competitive inhibition of HRV2 2A (HRV2 2A) | Spaltbarkeit durch HRV2 2A (result in words) (HRV2 2A) | Inhibition of host cell shut-off (host cell shut-off) | IC50 (2A) | Effect on 2A action on translation of Globin RNA (HRV2 2A Proteinase [1]) | Effect on 2A-induced change of translation pattern (HRV2 2A Proteinase [2])
1 | p220-4: 16-mer Oligopeptid, Position im p220-Molekül 476-491 (SEQ ID NO. 125) (SEKGGEELLPPESTPI; UniProt Q04637 476-491, looked up, fragment) | wirken als kompetitive Inhibitoren | von HRV2 2A prozessiert werden können | in der Lage, den "host cell shut-off" zu inhibieren | – | – | –
2 | p220-3: 16-mer Oligopeptid, Position im p220-Molekül 737-752 (SEQ ID NO. 124) (SSKRTAADKDRGEEDA; UniProt Q04637 737-752, looked up, fragment) | wirken als kompetitive Inhibitoren | von HRV2 2A prozessiert werden können | in der Lage, den "host cell shut-off" zu inhibieren | – | – | –
3 | CC(C)C[C@H](NC(=O)N[C@H](C(=O)N[C@@H](CCC(N)=O)C(=O)N[C@@H](C)C=O)[C@@H]1CCNC(=N)N1)C(=O)O [Elastatinal] | – | – | – | 50 µM | die 2A-Wirkung auf die Translation wird inhibiert | die Inhibition von 2A verhindert die Änderung der Translationseigenschaften
